Measured values from ChEMBL document CHEMBL5465560, “Selectivity Literature for EUbOPEN Chemogenomic Library” (2024).
Blank lines part the entries; values can stand above or below the molecule they belong to.

How the values were obtained:
[1] = target: [Pyruvate dehydrogenase (acetyl-transferring)] kinase isozyme 1, mitochondrial (Homo sapiens, UniProt Q15118); test: Selectivity interaction (Kinase panel (Z-LYTE Assay)) EUB0001632a PDK1; settings: at 10 µM
[2] = target: Mitogen-activated protein kinase 14 (Homo sapiens, UniProt Q16539); test: Selectivity interaction (Kinase panel (33PanQinase(R) Activity Assay)) EUB0000877a MAPK14
Sequence of Mitogen-activated protein kinase 14 (Q16539 whole entry): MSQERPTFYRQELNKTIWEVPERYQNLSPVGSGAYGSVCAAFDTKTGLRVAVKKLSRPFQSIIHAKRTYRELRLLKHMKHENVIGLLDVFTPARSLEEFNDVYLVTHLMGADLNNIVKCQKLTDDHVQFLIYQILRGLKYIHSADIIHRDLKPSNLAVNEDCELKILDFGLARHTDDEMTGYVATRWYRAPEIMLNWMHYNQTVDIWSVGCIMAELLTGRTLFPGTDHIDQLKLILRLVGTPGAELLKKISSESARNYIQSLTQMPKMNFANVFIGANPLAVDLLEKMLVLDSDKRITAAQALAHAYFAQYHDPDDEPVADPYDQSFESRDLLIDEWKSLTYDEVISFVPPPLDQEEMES

[3] = target: T1, Serine/threonine-protein kinase D2 (Homo sapiens) (UniProt Q9BZL6); test: Selectivity interaction (SelectScreen profiling (Invitrogen)) EUB0000607a PRKD2; settings: at 2 µM
T1 sequence (whole entry): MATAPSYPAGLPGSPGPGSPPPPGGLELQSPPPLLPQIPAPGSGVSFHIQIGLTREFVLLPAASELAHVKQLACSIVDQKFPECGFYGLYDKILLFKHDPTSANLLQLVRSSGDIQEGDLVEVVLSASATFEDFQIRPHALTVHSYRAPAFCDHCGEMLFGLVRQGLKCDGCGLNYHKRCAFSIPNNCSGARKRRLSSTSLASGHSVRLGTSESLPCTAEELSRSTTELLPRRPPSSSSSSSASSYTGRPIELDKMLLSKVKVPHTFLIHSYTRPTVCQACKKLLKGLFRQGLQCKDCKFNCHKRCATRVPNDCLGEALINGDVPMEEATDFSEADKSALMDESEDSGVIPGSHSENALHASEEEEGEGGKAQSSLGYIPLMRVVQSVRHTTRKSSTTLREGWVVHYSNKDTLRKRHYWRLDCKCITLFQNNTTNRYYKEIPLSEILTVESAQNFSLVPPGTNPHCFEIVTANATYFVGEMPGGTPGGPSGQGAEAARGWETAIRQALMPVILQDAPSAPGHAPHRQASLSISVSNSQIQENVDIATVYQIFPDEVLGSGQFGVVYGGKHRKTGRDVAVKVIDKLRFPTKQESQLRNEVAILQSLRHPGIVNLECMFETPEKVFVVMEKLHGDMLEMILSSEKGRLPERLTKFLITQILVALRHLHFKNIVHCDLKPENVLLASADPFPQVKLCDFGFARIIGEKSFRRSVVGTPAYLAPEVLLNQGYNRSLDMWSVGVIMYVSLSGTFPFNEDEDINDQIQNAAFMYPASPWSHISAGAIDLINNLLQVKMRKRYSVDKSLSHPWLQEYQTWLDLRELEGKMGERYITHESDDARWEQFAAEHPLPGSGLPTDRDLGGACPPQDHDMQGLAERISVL

[4] = target: T2, cGMP-dependent protein kinase 2 (Homo sapiens) (UniProt Q13237); settings: at 10 µM
T2 sequence (whole entry): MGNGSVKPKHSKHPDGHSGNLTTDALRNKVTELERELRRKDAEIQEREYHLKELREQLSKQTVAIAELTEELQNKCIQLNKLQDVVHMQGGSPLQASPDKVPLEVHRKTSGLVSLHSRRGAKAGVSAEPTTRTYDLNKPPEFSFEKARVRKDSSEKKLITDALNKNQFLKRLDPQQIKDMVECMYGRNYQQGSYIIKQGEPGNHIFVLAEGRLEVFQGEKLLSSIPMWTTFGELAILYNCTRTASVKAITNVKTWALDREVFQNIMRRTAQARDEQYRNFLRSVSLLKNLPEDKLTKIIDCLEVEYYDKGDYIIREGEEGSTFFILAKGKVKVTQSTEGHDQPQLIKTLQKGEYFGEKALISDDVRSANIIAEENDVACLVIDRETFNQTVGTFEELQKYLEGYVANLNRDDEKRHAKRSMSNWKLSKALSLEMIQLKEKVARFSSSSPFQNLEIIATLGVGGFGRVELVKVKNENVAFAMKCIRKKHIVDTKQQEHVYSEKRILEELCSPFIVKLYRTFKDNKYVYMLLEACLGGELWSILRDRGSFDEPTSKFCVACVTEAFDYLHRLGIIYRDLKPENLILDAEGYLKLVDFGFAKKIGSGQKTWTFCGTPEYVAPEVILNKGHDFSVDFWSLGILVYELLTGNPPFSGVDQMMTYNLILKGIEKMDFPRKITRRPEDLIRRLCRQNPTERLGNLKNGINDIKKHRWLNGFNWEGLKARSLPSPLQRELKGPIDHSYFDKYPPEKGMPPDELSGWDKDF

[5] = target: Serine/threonine-protein kinase WNK1 (Homo sapiens) (UniProt Q9H4A3); test: Selectivity interaction (ActivX KiNativ screen (kinase selectivity in THP-1 cell lysates)) EUB0000639a WNK1; assay type: subcellular; settings: lysate, at 0.01 µM
Sequence of Serine/threonine-protein kinase WNK1 (Homo sapiens) (Q9H4A3 whole entry, looked up): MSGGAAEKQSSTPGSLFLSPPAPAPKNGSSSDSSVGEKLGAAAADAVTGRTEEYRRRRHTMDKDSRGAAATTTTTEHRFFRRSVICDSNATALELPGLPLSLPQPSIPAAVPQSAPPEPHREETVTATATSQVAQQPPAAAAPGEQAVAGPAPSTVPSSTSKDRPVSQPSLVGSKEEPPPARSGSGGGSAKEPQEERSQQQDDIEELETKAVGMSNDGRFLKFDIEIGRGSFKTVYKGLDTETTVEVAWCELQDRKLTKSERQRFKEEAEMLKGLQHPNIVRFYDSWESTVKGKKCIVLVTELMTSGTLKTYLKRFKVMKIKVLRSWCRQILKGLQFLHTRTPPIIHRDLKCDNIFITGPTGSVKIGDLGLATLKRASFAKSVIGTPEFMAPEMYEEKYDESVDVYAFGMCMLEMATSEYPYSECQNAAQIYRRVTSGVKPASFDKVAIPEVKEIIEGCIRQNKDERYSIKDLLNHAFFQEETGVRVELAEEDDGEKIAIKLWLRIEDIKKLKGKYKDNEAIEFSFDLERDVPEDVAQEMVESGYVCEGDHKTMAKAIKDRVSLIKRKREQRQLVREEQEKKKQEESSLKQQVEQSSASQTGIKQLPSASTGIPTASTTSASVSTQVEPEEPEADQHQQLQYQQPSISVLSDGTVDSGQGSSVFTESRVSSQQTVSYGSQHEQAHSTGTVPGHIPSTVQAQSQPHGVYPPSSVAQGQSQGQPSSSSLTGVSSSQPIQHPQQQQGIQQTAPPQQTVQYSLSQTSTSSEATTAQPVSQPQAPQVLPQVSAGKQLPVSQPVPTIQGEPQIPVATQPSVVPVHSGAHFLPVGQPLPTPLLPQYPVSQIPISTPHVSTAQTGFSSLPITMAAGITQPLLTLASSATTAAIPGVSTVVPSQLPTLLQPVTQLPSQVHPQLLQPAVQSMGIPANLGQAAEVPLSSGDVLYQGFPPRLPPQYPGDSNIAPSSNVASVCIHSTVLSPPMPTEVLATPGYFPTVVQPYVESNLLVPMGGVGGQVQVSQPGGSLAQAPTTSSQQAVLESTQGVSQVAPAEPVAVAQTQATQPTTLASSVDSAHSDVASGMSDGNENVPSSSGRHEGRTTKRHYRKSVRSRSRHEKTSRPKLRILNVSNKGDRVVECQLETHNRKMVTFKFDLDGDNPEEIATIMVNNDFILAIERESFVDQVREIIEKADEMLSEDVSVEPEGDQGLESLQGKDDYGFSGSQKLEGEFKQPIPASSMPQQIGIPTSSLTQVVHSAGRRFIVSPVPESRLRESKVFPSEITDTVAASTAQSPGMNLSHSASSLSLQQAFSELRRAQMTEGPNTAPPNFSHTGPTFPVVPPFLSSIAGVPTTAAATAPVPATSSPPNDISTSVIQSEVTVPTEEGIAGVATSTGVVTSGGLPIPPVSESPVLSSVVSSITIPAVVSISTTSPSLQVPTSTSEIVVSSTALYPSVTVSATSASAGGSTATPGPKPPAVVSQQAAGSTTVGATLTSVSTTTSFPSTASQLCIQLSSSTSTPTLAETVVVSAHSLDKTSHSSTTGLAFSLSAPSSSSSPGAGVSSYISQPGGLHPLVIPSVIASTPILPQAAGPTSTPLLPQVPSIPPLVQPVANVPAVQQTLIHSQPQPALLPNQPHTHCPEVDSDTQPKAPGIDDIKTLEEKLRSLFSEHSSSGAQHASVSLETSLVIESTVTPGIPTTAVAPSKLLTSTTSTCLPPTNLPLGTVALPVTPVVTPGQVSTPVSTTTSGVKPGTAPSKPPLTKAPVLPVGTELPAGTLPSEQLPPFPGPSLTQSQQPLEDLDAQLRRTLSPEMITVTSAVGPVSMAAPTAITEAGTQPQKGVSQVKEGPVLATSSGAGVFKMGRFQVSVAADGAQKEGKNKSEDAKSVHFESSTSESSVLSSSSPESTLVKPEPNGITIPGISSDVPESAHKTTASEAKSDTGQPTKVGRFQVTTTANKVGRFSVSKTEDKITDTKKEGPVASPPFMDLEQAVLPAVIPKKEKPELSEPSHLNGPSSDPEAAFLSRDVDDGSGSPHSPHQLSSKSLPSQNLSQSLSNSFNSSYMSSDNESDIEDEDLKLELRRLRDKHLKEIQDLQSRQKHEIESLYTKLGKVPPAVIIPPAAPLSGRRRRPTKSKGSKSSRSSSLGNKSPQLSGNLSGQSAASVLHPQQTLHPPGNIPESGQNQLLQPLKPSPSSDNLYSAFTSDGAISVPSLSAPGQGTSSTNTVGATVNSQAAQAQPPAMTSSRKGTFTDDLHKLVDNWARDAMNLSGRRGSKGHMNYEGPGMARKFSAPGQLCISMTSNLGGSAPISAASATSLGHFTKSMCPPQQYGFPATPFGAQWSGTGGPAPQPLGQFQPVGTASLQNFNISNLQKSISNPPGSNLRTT

[6] = target: cAMP-dependent protein kinase catalytic subunit beta (Homo sapiens) (UniProt P22694); settings: at 10 µM
[7] = target: T3, Dual specificity protein kinase TTK (Homo sapiens) (UniProt P33981); test: Selectivity interaction (KinomeScan (DiscoverX)) EUB0000655a TTK; settings: at 10 µM
T3 sequence (whole entry): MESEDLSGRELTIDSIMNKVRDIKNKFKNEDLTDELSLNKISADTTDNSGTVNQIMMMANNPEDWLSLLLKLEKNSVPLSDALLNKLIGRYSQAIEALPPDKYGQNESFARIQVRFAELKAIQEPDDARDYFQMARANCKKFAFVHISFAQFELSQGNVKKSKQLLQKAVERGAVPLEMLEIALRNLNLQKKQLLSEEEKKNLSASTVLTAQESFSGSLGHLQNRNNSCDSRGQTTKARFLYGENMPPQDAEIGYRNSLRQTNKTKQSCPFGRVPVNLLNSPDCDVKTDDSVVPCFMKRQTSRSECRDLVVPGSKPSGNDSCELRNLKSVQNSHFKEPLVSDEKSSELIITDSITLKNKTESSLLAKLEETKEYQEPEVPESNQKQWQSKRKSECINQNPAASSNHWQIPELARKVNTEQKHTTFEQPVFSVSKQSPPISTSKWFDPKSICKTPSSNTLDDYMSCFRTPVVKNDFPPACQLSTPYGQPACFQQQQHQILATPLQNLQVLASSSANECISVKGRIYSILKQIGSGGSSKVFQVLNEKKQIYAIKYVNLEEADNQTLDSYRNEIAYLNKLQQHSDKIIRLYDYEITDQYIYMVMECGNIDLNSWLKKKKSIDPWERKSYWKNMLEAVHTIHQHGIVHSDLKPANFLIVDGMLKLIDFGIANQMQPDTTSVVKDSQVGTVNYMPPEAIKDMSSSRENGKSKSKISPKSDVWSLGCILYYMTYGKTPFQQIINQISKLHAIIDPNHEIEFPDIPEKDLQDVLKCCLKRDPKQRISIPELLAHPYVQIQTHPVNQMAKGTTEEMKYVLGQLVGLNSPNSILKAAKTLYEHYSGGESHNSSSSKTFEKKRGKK

[8] = target: Vascular endothelial growth factor receptor 3 (Homo sapiens, UniProt P35916); test: Selectivity interaction (KinomeScan (DiscoverX)) EUB0000618a FLT4; settings: at 10 µM
[9] = target: Receptor tyrosine-protein kinase erbB-2 (Homo sapiens, UniProt P04626); test: Selectivity interaction (KinomeScan (DiscoverX)) EUB0001619a ERBB2; settings: at 1 µM
Sequence of Receptor tyrosine-protein kinase erbB-2 (P04626 whole entry): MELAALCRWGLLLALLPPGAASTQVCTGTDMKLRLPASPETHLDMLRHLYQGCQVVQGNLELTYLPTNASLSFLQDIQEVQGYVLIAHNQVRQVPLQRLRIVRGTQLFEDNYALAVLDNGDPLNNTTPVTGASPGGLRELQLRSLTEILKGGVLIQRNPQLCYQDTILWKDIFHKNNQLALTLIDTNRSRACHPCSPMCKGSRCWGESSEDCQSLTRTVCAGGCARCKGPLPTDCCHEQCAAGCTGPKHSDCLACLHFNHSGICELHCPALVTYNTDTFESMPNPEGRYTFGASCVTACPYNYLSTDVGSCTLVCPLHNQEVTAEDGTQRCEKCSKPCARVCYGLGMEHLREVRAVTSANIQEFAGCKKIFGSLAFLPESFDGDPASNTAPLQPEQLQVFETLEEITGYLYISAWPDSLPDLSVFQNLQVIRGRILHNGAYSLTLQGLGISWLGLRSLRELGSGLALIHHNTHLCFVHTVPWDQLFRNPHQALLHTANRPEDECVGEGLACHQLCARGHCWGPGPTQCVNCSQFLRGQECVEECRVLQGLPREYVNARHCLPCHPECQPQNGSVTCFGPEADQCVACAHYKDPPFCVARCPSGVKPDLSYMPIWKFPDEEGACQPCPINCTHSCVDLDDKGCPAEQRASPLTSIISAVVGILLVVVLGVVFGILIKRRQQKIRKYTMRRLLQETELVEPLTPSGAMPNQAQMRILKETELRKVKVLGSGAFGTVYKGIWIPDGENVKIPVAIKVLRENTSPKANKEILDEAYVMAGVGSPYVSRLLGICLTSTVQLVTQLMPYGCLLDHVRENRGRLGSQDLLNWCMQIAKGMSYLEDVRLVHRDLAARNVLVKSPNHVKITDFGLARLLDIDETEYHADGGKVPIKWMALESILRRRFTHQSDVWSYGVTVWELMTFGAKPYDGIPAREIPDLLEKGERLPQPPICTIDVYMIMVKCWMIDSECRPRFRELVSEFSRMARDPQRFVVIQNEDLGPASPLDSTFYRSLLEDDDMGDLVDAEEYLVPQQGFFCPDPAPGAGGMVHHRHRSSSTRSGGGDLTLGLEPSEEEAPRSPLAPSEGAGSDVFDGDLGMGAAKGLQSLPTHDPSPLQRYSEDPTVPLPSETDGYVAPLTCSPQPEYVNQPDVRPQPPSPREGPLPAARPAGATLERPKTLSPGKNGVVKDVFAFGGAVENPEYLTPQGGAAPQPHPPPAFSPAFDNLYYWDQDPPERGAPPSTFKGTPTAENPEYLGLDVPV

% of control [1]: -4.24%
SMILES: Cn1cc(-n2cnc3c(NCc4nc5cc(Cl)c(Cl)cc5[nH]4)nc(N4CCOCC4)nc32)cn1

IC50 [2]: > 10 µM
SMILES: CCC(=O)N1CC[C@H](Nc2ncnc3c2CN(c2cnc(OC)c(C(F)(F)F)c2)CC3)C1 [LENIOLISIB]

SMILES: CNC(=O)Nc1ccc(-c2nc(N3CC4CCC(C3)O4)c3cnn(C4CCC5(CC4)OCCO5)c3n2)cc1
% of inhibition [3]: 1%

% of control [4]: 100%
SMILES: CCN(CC)CCCCNc1ncc2cc(-c3cc(OC)cc(OC)c3)c(NC(=O)NC(C)(C)C)nc2n1

% of inhibition [5]: 3.3%
SMILES: CC[C@@H]1[C@H](F)C(=O)N[C@@H]1COc1nccc2cc(C(N)=O)c(OC)cc12 [ZIMLOVISERTIB]

SMILES: COCC(=O)NC/C=C/c1ccc2ncnc(Nc3ccc(Oc4ccc(C)nc4)c(C)c3)c2c1 [CP-724714]
% of control [6]: 100%

SMILES: CN(C)CCOc1ccc(-c2nc(-c3ccncc3)c(-c3ccc4c(c3)CC/C4=N\O)[nH]2)cc1
% of control [7]: 94%

SMILES: O[C@H]1CC[C@H](Nc2ncc3nc(Nc4c(F)cc(F)cc4F)n([C@H]4CCOC4)c3n2)CC1
% of control [8]: 55%

SMILES: N#Cc1cccc(-c2c[nH]c3ncnc(N4CCOCC4)c23)c1
% of control [9]: 73%
